Series [1] is described as follows: Toxicity: survival/mortality of mice after intravenous administration or injections. Format: in vivo. To be noted: mouse, in vivo; intravenous, three successive doses of 10 mg/kg/day; read-out: mice that do not survive for 15 days.
Protocol: Several toxicity measurements are carried out with suspensions of particles obtained by this process.
For a further series, the system named is mice. Described as above. Format: in vivo. The following applies: three injections of 12.5 mg/kg/day; result in words.

On to `COc1cccc2c1C(=O)c1c(O)c3c(c(O)c1C2=O)C[C@@](O)(C(=O)CO)C[C@@H]3O[C@H]1C[C@H](N)[C@H](O)[C@H](C)O1` [doxorubicin], for which the mortality at 360 h in series [1] worked out at 27.5%. In the series on mice, the mice that survive result is on record as “none of the mice survives”.

Values taken from patent US4913908A, “Preparation of submicroscopic particles, particles thus obtained and pharmaceutical compositions containing them” (N. V. Sopar S.A., priority 1981, dated 1990).
